Read-outs that look alike come from different tables or passages of the source. Some results are limits rather than exact numbers.

One series deals with recombinant ACE2 and RBD. To be noted: at 60 μM; cited from earlier work.
Series [1] concerns SARS-CoV-2 Omicron BA.5 (NTU280). Put plainly: Antiviral plaque reduction assay, Omicron BA.5 strain, Vero E6 cells. The format is cell-based. In general terms: In a plaque reduction assay, fewer plaques than in the control indicate reduced infectivity or spread.
Series [2] concerns SARS-CoV-2 Delta virus (NTU92). Put plainly: microbe, parasite or virus in culture. The format is cell-based.
The nature of series [3]: Cytotoxicity, acid phosphatase (ACP) assay. To be noted: African green monkey. Format: cell-based. The protocol: (§1) Cytotoxicity of the compounds was determined using the acid phosphatase (ACP) assay. Vero E6 cells were seeded onto a 96-well culture plate at a concentration of 2 × 10^4 cells per well. Next day, the medium was removed, and each well was washed once with PBS before adding DMEM containing 2% FBS and different concentrations of test compounds. After 3 days of incubation at 37 °C, the medium was removed, and each well was washed once with PBS. Next, a buffer containing 0.1 M sodium acetate (pH = 5.0), 0.1% Triton X-100, and 5 mM p-nitrophenyl phosphate was added. After incubating at 37 °C for 30 min, 1 N NaOH was added to stop the reaction. The absorbance was measured using an ELISA reader (VERSAmax, Molecular Devices, Sunnyvale, CA) at a wavelength of 405 nm. The percentage of cell viability was calculated by using the following formula: Viability % = [ (At/As) × 100]%, where At and As represent the absorbance of the test compound and the solvent control, respectively. […] For each compound, the measurements were repeated at least 3 times to determine the averaged CC50 values and standard deviation.

The subject of a further series is wild-type SARS-CoV-2. Put plainly: microbe, parasite or virus in culture. Format: cell-based. To be noted: Severe acute respiratory syndrome coronavirus 2, read-out: EC50 wild-type strain.
A further series addresses SARS-CoV-2 3CL^pro (Severe acute respiratory syndrome coronavirus 2, UniProt P0DTD1). Put plainly: 3CLpro inhibition (fluorogenic peptide). The format is biochemical.
The next series has as its target T1, TMPRSS2 (Homo sapiens, UniProt O15393).
T1 construct: The recombinant TMPRSS2 ectodomain (residues 109–492), excluding the transmembrane domain; His tag; made in house; host or cells: ExpiSf9 insect cells (baculovirus)
Put plainly: TMPRSS2 inhibition (Boc-Gln-Ala-Arg-AMC fluorogenic substrate). The format is biochemical.

Another series concerns the target T2, furin (Homo sapiens, UniProt P09958).
T2 construct: purchased BPS Bioscience 78040
Put plainly: Furin inhibition (Furin Protease Assay Kit, fluorescence). Format: biochemical.

The target in the next series is T3, cathepsin L (Homo sapiens, UniProt P07711).
T3 construct: purchased Abcam
T3 sequence (P07711 114-333): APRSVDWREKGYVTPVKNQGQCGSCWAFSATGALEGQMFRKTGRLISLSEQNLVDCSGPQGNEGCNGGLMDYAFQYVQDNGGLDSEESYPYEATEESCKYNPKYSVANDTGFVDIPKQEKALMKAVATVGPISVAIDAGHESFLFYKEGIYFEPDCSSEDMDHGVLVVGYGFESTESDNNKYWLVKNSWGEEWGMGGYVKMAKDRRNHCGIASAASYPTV
Put plainly: Cathepsin L inhibition (Cathepsin L Protease Assay Kit, fluorescence). Format: biochemical.

A further series addresses SARS-CoV-2 PL^pro (Severe acute respiratory syndrome coronavirus 2, UniProt P0DTD1). Put plainly: PLpro inhibition (proteolytic, deubiquitinating, deISGylation activities). The format is biochemical.
The target of the next series is SARS-CoV-2 RdRp (Severe acute respiratory syndrome coronavirus 2, UniProt P0DTD1). Put plainly: RdRp inhibition (nsp12/nsp7L8/nsp8 complex, ProFoldin kit). Format: biochemical. To be noted: triplicate.
Another series has as its system Vero E6 cells. Put plainly: Cytotoxicity, acid phosphatase (ACP) assay. Format: cell-based. Particulars: Vero E6, 3 days. Here is the method: as §1
Setting [4] is: 35 nM 3CL^pro, 6 μM substrate, read-out: IC50 3CL^pro.
Where [5] appears, read: 1.3 nM TMPRSS2, 10 μM substrate, triplicate.
Where [6] appears, read: Severe acute respiratory syndrome coronavirus 2, Vero C1008, Omicron BA.5, plaque reduction, Vero E6, read-out: EC50 ο BA.5 (converted).
[7] abbreviates: Severe acute respiratory syndrome coronavirus 2, Vero C1008, Delta strain, plaque reduction, Vero E6, entry treatment, read-out: EC50 δ.
The mark [8] stands for this setting: one entry for PL^pro, the three activities not told apart, read-out: IC50 PL^pro.
The mark [9] stands for this setting: substrate ISG15-AMC, third of three values, read-out: IC50 PL^pro, deISGylation activity.
[10] abbreviates: substrate Ub-AMC, second of three values, read-out: IC50 PL^pro, deubiquitinating activity.
Where [11] appears, read: substrate Z-Arg-Leu-Arg-Gly-Gly-AMC, first of three values, read-out: IC50 PL^pro, proteolytic activity.

T1 sequence (O15393 109-492 S251D/R252D/Q253D/S254D/R255K limits assumed): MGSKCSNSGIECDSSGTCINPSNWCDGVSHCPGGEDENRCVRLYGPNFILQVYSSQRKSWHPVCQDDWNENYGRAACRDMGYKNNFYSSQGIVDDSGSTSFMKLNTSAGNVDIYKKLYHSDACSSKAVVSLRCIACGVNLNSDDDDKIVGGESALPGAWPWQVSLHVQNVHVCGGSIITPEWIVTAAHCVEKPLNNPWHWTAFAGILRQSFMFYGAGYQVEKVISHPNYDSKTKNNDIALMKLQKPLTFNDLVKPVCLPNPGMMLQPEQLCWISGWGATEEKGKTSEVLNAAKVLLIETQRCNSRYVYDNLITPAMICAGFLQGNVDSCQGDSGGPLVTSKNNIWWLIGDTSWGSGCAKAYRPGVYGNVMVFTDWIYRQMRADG
T2 sequence (P09958 108-794): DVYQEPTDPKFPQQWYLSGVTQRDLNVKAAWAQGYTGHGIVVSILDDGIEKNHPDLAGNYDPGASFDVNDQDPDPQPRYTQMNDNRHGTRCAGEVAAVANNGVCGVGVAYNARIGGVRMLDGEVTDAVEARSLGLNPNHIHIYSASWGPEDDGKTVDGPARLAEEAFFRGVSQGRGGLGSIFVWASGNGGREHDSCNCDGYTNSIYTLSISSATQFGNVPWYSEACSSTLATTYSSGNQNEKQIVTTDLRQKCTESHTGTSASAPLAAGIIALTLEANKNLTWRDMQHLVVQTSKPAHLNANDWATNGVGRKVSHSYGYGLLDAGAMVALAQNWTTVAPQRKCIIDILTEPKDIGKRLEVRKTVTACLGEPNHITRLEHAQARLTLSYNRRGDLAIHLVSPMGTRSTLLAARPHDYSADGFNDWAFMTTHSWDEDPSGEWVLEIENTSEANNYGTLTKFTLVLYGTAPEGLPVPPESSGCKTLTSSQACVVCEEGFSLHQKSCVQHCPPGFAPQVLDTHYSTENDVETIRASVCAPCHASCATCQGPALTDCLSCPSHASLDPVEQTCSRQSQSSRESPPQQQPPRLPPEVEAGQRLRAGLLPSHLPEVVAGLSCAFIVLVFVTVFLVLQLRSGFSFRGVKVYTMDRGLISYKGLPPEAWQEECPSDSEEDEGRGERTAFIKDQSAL
Experimental for cathepsin L: Cathepsin L activity was determined using a commercial Cathepsin L Protease Assay Kit (Abcam, U.K.) in 20 μL reaction mixtures on a 384-well plate (PerkinElmer). Different concentrations of each inhibitor were added to the assay buffer supplied with dithiothreitol (DTT) in the kit, also containing 1% DMSO from the stock solutions of inhibitors. The fluorescence intensity was monitored for 30 min at excitation and emission wavelengths of 380/460 nm. The concentration-dependent inhibition curves of cathepsin L were fitted with the equation A(I) = A(0) x {1–[I/(I + IC50)]} using GraphPad Prism (v.9.4.0). The measurements were performed in triplicate to generate the averaged IC50 values and the standard deviations.
Experimental for furin: Following the protocol as described in ref ([35]) a commercial Furin Protease Assay Kit (BPS Bioscience, catalog#78040) was employed to assay furin activities. It was conducted in 20 μL reaction mixtures on a 384-well plate (PerkinElmer) comprising 0.25 ng/μL furin, 2 μM substrate, and different concentrations of inhibitors in the assay buffer with 1% DMSO from the stock solutions of compounds. Fluorescence intensity was monitored at excitation/emission wavelengths of 380/460 nm. The concentration-dependent inhibition curves of furin were fitted with the equation A(I) = A(0) x {1–[I/(I + IC50)]} using GraphPad Prism (v.9.4.0). All of the measurements were performed in triplicate to determine the averaged IC50 values and the standard deviations.

One may read the EC50 as the midpoint of the concentration-response curve. As usually defined, the CC50 is the concentration at which the toxic effect on the cells reaches its halfway point. For `O=C(O[C@@H]1Cc2c(O)cc(O)cc2O[C@@H]1c1cc(O)c(=O)c2c(O)c(O)cc([C@H]3Oc4cc(O)cc(O)c4C[C@H]3OC(=O)c3cc(O)c(O)c(O)c3)c2c1)c1cc(O)c(O)c(O)c1` [TF3, theaflavin-3,3′-digallate], the “inhibition of the interaction between recombinant ACE2 and RBD” value in the series with recombinant ACE2 and RBD was “effectively inhibiting”. Further, the EC50 in [1] (Severe acute respiratory syndrome coronavirus 2, Vero C1008, read-out: EC50 ο BA.5) amounted to 0.2 µM; in series [2] (Severe acute respiratory syndrome coronavirus 2, Vero C1008), 0.2 µM; with wild-type SARS-CoV-2, 0.3 µM. In addition, the CC50 at 3 days in [3] was above 100 µM.

Broadly, the IC50 is the point on the concentration scale where inhibition reaches its midpoint. For `O=C(O[C@@H]1Cc2c(O)cc(O)cc2O[C@@H]1c1cc(O)c(=O)c2c(O)c(O)c(O)cc2c1)c1cc(O)c(O)c(O)c1` [epitheaflagallin-3-O-gallate], the half-inhibitory concentration (IC50) on SARS-CoV-2 3CL^pro (setting [4]) is 31.2 ± 2.6 µM; against TMPRSS2 (setting [5]), 35.3 ± 2.7 µM; against furin (triplicate, mean ± SD), 55 ± 6.5 µM; on cathepsin L (triplicate, mean ± SD), above 100 µM; at SARS-CoV-2 PL^pro (setting [8]), above 100 µM; against SARS-CoV-2 RdRp, above 100 µM. In addition, the EC50 was 0.6 µM in [1] (setting [6]) and 0.5 ± 0.1 µM in series [2] (setting [7]). The same molecule gave a 50% cytotoxic concentration (CC50) at 3 days in series [3] of 109 ± 45.3 µM.

proanthocyanidin: the IC50 on SARS-CoV-2 3CL^pro (read-out: IC50 3CL^pro) was 18.4 ± 1.1 µM; at TMPRSS2, 47 ± 4.6 µM; on furin it was above 100 µM; against cathepsin L, above 100 µM; on SARS-CoV-2 PL^pro (setting [9]), 7.3 ± 0.6 µM; on SARS-CoV-2 PL^pro (setting [10]), 3.3 ± 0.4 µM. In addition, the half-maximal inhibitory concentration (IC50) on SARS-CoV-2 PL^pro (setting [11]) was determined as 2.4 ± 0.3 µM; on SARS-CoV-2 RdRp it was 23.4 ± 1.3 µM. In addition, the 50% effective concentration (EC50) in series [1] (Omicron BA.5, plaque reduction, Vero E6, read-out: EC50 ο BA.5 (converted)) was 0.2 µM; in [2] (Delta strain, plaque reduction, Vero E6, entry treatment, read-out: EC50 δ), 0.5 ± 0.1 µM. This molecule displayed a CC50 with Vero E6 cells above 100 µM.

With `Oc1cc(O)c2c(c1)OC(c1ccc(O)c(O)c1)C(O)C2` (stereo not shown) [catechin], the IC50 is above 100 µM against SARS-CoV-2 3CL^pro; above 100 µM against TMPRSS2 (setting [5]); above 100 µM against furin (triplicate, mean ± SD); above 100 µM against cathepsin L (triplicate, mean ± SD); 17.8 ± 2.2 µM at SARS-CoV-2 PL^pro (setting [9]); 24.6 ± 3.3 µM on SARS-CoV-2 PL^pro (setting [10]). The half-maximal inhibitory concentration (IC50) at SARS-CoV-2 PL^pro (setting [11]) was 18.7 ± 3.5 µM; against SARS-CoV-2 RdRp, above 100 µM. The “inhibition against 3CL^pro” value at SARS-CoV-2 3CL^pro (in words) is on record as “no inhibition”. In addition, the EC50 in series [1] (setting [6]) and in [2] (setting [7]) was above 10 µM throughout. Besides, the “inhibition of Delta SARS-CoV-2” value in series [2] (at 10 μM) is given as “did not inhibit”. For the same molecule, the CC50 at 3 days in series [3] (Vero E6 cells, Vero E6, 3 days, read-out: CC50) was found to be 107 µM.

Regarding `O=c1c(O)cc([C@H]2Oc3cc(O)cc(O)c3C[C@H]2O)cc2c([C@H]3Oc4cc(O)cc(O)c4C[C@H]3O)cc(O)c(O)c12` [theaflavin], the IC50 at SARS-CoV-2 3CL^pro (setting [4]) is 16.1 ± 2.5 µM; at TMPRSS2 (setting [5]) it was above 100 µM; against furin (triplicate, mean ± SD), above 100 µM; against cathepsin L (triplicate, mean ± SD), 11.1 ± 1.1 µM; on SARS-CoV-2 PL^pro (setting [9]), 11.2 ± 1.3 µM; at SARS-CoV-2 PL^pro (setting [10]), 10.6 ± 0.9 µM. The results for the concentration for half-maximal inhibition (IC50) on SARS-CoV-2 PL^pro (setting [11]) and at SARS-CoV-2 RdRp were 9.9 ± 0.9 µM and 40.2 ± 2.3 µM, respectively. The EC50 in series [1] (setting [6]) is 2.2 µM; in [2] (setting [7]), 7.4 ± 0.1 µM. For the same molecule, the CC50 at 3 days in series [3] was found to be 66.4 ± 3.2 µM.

As for `O=C(O[C@@H]1Cc2c(O)cc(O)cc2O[C@@H]1c1cc(O)c(O)c2c(=O)c(O)cc([C@H]3Oc4cc(O)cc(O)c4C[C@H]3O)cc12)c1cc(O)c(O)c(O)c1` [theaflavin-3′-gallate], the half-maximal inhibitory concentration (IC50) was 6.7 ± 0.8 µM at SARS-CoV-2 3CL^pro (setting [4]); 6.2 ± 0.6 µM at TMPRSS2 (setting [5]); 58.5 ± 6.4 µM against furin (triplicate, mean ± SD); 51.1 ± 2.2 µM against cathepsin L (triplicate, mean ± SD); above 100 µM on SARS-CoV-2 PL^pro (setting [8]); 23.2 ± 0.4 µM on SARS-CoV-2 RdRp. The concentration giving a half-maximal response (EC50) in series [1] (setting [6]) is 0.4 µM; in series [2] (setting [7]) it was 0.8 ± 0.1 µM. The molecule also gave a CC50 at 3 days in [3] of 69.9 ± 12.9 µM.

With `O=C(O[C@@H]1Cc2c(O)cc(O)cc2O[C@@H]1c1cc(O)c(=O)c2c(O)c(O)cc([C@H]3Oc4cc(O)cc(O)c4C[C@H]3O)c2c1)c1cc(O)c(O)c(O)c1` [theaflavin-3-gallate], the IC50 on SARS-CoV-2 3CL^pro (setting [4]) is 8.8 ± 0.8 µM; at TMPRSS2 (setting [5]), 48.7 ± 3 µM; against furin (triplicate, mean ± SD) it was 36.7 ± 5.7 µM; against cathepsin L (triplicate, mean ± SD) it was above 100 µM; at SARS-CoV-2 PL^pro (setting [8]) it was above 100 µM; at SARS-CoV-2 RdRp, above 100 µM. The concentration giving a half-maximal response (EC50) in series [1] (setting [6]) and in series [2] (setting [7]) was 0.4 µM each time. Further, the 50% cytotoxic concentration (CC50) at 3 days in series [3] is above 100 µM.

The record behind these values is article PMC11154727, “Systematic Studies on the Anti-SARS-CoV-2 Mechanisms of Tea Polyphenol-Related Natural Products” (ACS Omega, 2024).
